Results reported in US7419954B2, “Staphylococcus peptides for bacterial interference” (priority 1998, dated 2008).
Where a SMILES comes first, the peptide text is derived from it. Bridges are numbered along the chain shown (N, C = ends).

Experiments:
[1] = target: AgrC receptor of group I S. aureus (Staphylococcus aureus); test: cell-based or functional assay
[2] = target: AgrC receptor of group II S. aureus (Staphylococcus aureus); test: cell-based or functional assay
[3] = target: AgrC receptor of group III S. aureus (Staphylococcus aureus); test: cell-based or functional assay
[4] = target: agr response in group I (RN6390B) S. aureus; test: agr P3-blaZ β-lactamase reporter assay, activation of the agr response; assay type: cell-based; details: early exponential phase, 55 minutes
Protocol: (§1) The synthetic AgrD peptides shown in Table 1 include the following: Agr D1 Thiolactone. […] (SEQ ID NO: 9): Agr D2 Thiolactone, […] (SEQ lID NO: 1): Agr D2 Linear Thioester, […] (SEQ ID NO: 1): Agr D2 Linear Free Acid […] (SEQ ID NO: 1); Agr D2 Lactone, […] (SEQ ID NO: 1); and Agr D2 Lactam, GVNAXSSLF (SEQ ID NO: 1).
(§2) Biological activity of synthetic AgrD peptides. Biological assays were performed using groups I (RN6390B), II (SA502A) and III (RN8463) S. aureus strains (Ji et al. (1997) supra), each containing an agr P3-blaZ fusion plasmid (Novick et al. (1995) supra). Cells were grown in CYGP medium at 37° C. to either early exponential phase for agr activation studies, or midexponential phase for agr inhibition studies. To the cultured cells were then added one of the following: buffer solution (negative control), the appropriate cell supernatant containing the natural AgrD peptide as prepared as in (Ji, G., et al., 1995) (positive control) or the synthetic peptide solution in 20 mM tris.HCl buffer at pH 6.0.

[5] = target: agr response in group II (SA502A) S. aureus; test: as above; assay type: cell-based; details: early exponential phase, 55 minutes
Protocol: as §1, §2

[6] = target: agr response in group III (RN8463) S. aureus; test: as above; assay type: cell-based; details: early exponential phase, 55 minutes
Protocol: as §1, §2

[7] = target: agr response in group I (RN6390B) S. aureus; test: agr P3-blaZ β-lactamase reporter assay, inhibition of the agr response; assay type: cell-based; details: for IC50 Inhibition, S. aureus Group I / IC50: group I (RN6390B), midexponential phase, 80 minutes
Protocol: as §1, §2

[8] = target: agr response in group II (SA502A) S. aureus; test: as above; assay type: cell-based; details: for inhibition of self (own group): own S. aureus group (group II)
Protocol: as §1, §2

[9] = target: agr response in group III (RN8463) S. aureus; test: as above; assay type: cell-based
Protocol: as §1, §2

[10] = test system: agr response in groups I, II and III S. aureus strains; test: agr P3-blaZ β-lactamase reporter assay, activation/inhibition in the three S. aureus strains; assay type: cell-based
Protocol: as §1, §2

[11] = Determination of AIP-II half-life: incubation in PBS or rabbit serum, then dose-response activation of β-lactamase induction; assay type: cell-based, S. aureus; details: rabbit, rabbit serum; from EC50 shift PBS vs serum; given as in vivo
Protocol: (§3) Determination of AIP-II half-life. To approximate the active lifetime of AIP, a synthetic version of AIP-IL (Lyon et al. (2002) Biochemistry 41, 10095-104) was incubated in PBS or rabbit serum at 37° C. for 4 hours. The sample was diluted and a dose-response assay for activation of β-lactamase induction of strain RN7206 carrying the agrCA-II agrp3-blaZ reporter fusion was performed as previously described (Lyon et al. (2002) supra; Wright III et al. (2004) Proc. Natl. Acad. Sci., USA).

[12] = test system: strain RN7206 carrying the agrCA-II agrp3-blaZ reporter fusion; test: as above; assay type: cell-based, S. aureus; details: normal rabbit serum
Protocol: as §3

[13] = test system: agr-I bacteria (RN6734) carrying agrp3-lux or blaZp-lux; test: Murine subcutaneous abscess model with in vivo bioluminescence imaging; parameters: species or system SKH-1 mice; details: mice, single dose 10 μg co-injected with agr-I bacteria
Protocol: Murine subcutaneous abscess model. Groups (n=3 per variable examined) of hairless, euthymic SKH-1 (ISL) mice (Charles River) were used in the murine subcutaneous abscess model (Bunce et al. (1992) Infect. Immun. 60, 2636-40). In this model, staphylococci are injected subcutaneously with cytodex beads, and an abscess develops at the site of injection 2-3 days later, then sloughs and drains. The organisms grow rapidly initially, after which the population levels out and remains constant thereafter. Polymorphonuclear leuykocytes (PMNs) are attracted to the developing lesion by bacterial products and by pro-inflammatory cytokines, reaching maximum numbers by about 6 hours.
Bacteria were thawed, diluted to appropriate cell density, mixed with sterile cytodex beads (Sigma) and injected subcutaneously in a volume of 0.1 ml in the flank region. […] Mice were fed a standard diet ad libitum and monitored daily for signs of distress. Colony forming units (CFU) per abscess were determined by plating serial dilutions of excised lesions homogenized in PBS plus 0.5% Triton X-100.
Measurement of bioluminescence in vivo. […] For the graphs, the signal collected on a portion of the CCD array corresponding to the area of injected bacteria was determined in photons/sec/cm^2/sr, referred to as relative light units (RLU), and plotted vs. time after initiation of infection.

[14] = group II (SA502A), midexponential phase, 80 minutes
[15] = group III (RN8463), midexponential phase, 80 minutes

Compound	IC50 Inhibition (nM), agr P3-blaZ beta-lactamase reporter [1]	ED50 Activation, S. aureus Group I [4]	ED50 Activation, S. aureus Group II [5]	ED50 Activation, S. aureus Group III [6]	IC50 Inhibition, S. aureus Group I [7]	IC50 Inhibition, S. aureus Group II [8, 14]	also measured
Agr D2 Thiolactone (peptide)	3.4 nM	–	–	–	–	–	ED50 Activation (nM), agr P3-blaZ beta-lactamase reporter [2]: 3.6 nM; IC50 Inhibition (nM), agr P3-blaZ beta-lactamase reporter [3]: 3.1 nM
Agr D1 Thiolactone (peptide)	–	–	–	–	–	–	ED50 Activation (nM), agr P3-blaZ beta-lactamase reporter [1]: 10.2 nM; IC50 Inhibition (nM), agr P3-blaZ beta-lactamase reporter [2]: 2.9 nM; IC50 Inhibition (nM), agr P3-blaZ beta-lactamase reporter [3]: 3.2 nM
GVNASSSLF [Agr D2 Linear Free Acid, GVNASSSLF (SEQ ID NO: 1)]	–	No Activation	No Activation	No Activation	No Inhibition	No Inhibition	IC50 Inhibition, S. aureus Group III [9, 15]: No Inhibition
YSTCDFIM [Agr D1 Thiolactone, YSTCDFIM (SEQ ID NO: 9)]	–	–	No Activation	No Activation	No Inhibition	–	EC50 ([4]; read-out: ED50 Activation, S. aureus Group I): 10.2 nM; IC50 [8, 14]: 2.9 nM; IC50 [9, 15]: 3.2 nM
GVNAASSLF [Agr D2 Linear Thioester, GVNAASSLF (SEQ ID NO: 1)]	–	No Activation	No Activation	No Activation	No Inhibition	No Inhibition	IC50 Inhibition, S. aureus Group III [9, 15]: No Inhibition; activation/inhibition of the agr response ([10]; added to cultured cells at μM concentrations): unable to either activate or inhibit
CC(C)C[C@@H]1NC(=O)[C@H](CO)NC(=O)[C@H](CO)NC(=O)[C@@H](NC(=O)[C@H](C)NC(=O)[C@H](CC(N)=O)NC(=O)[C@@H](NC(=O)CN)C(C)C)CSC(=O)[C@H](Cc2ccccc2)NC1=O [Agr D2 Thiololactone, GVNACSSLF (SEQ lID NO: 1)] (H-GVNACSSLF; thioester 5-C)	–	–	–	–	–	–	half-life [11]: < 4 h; in vitro lifetime [12]: ~4 h; effective biological lifetime of the peptide in vivo [13]: about 3 hours
Agr D2 Lactone (peptide)	7.9 nM	–	–	–	–	–	–
Agr D2 Lactam (peptide)	0.21 nM	–	–	–	–	–	–
GVNASSSLF (SEQ ID NO: 1) [Agr D2 Lactone]	–	No Activation	No Activation	No Activation	–	No Inhibition	inhibition of the agr response in group I S. aureus strains [7]: able to inhibit; IC50 [7]: 7.9 nM; inhibition of self (own group) [8]: do not inhibit self; inhibition of the agr response in group III S. aureus strains [9]: able to inhibit; activation of the agr response in any of the three S. aureus strains [10]: unable to activate
GVNAXSSLF (SEQ ID NO: 1) [Agr D2 Lactam]	–	No Activation	No Activation	No Activation	–	No Inhibition	inhibition of the agr response in group I S. aureus strains [7]: able to inhibit; IC50 [7]: 0.21 nM; inhibition of self (own group) [8]: do not inhibit self; inhibition of the agr response in group III S. aureus strains [9]: able to inhibit; activation of the agr response in any of the three S. aureus strains [10]: unable to activate
